{"source": "the Kinase Knowledgebase extract (Sharma et al. 2016)", "data": [{"molecular_target": "EGFR (human) (UniProt P00533)", "sequence (P00533 whole entry, looked up)": "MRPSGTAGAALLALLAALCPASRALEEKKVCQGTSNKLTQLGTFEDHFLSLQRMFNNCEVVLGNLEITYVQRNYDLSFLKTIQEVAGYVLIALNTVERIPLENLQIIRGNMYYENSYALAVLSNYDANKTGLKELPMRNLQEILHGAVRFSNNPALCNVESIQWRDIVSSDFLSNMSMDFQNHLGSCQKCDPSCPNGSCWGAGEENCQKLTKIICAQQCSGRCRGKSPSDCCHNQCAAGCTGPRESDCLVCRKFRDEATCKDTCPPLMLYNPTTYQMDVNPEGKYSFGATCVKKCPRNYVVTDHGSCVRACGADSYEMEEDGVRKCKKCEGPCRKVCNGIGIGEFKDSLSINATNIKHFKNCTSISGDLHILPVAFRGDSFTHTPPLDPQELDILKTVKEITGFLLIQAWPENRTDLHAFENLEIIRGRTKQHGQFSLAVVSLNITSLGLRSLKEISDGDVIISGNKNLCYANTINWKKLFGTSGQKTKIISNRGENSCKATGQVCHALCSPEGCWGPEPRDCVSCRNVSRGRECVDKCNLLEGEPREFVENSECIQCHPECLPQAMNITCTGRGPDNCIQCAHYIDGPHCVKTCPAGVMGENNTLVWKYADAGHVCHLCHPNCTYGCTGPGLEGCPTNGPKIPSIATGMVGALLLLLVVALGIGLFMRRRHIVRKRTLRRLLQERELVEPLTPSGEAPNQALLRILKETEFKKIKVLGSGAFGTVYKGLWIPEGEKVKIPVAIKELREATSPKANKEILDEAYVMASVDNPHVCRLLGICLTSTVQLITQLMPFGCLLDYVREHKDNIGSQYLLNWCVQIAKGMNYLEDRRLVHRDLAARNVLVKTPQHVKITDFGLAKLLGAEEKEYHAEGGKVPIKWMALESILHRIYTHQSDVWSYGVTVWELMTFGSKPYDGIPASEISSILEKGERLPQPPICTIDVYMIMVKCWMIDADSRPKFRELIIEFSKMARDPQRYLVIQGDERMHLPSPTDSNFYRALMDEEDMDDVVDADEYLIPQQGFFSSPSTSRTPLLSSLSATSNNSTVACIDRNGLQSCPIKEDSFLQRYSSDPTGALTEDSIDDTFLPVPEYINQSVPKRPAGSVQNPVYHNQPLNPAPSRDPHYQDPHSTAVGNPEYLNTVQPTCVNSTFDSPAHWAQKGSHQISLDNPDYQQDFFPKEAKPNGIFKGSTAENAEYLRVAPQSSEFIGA", "units": {"IC50": "nM"}, "values": [{"smiles": "CN(C/C=C/C(=O)N1CC[C@@H](n2nc(-c3ccc(C(=O)Nc4nccs4)cc3)c3c(N)ncnc32)C1)C1CC1", "IC50": "< 1"}, {"smiles": "CN(C/C=C/C(=O)N1CC[C@@H](n2nc(-c3ccc(C(=O)Nc4ncc(C5CC5)s4)cc3)c3c(N)ncnc32)C1)C1CC1", "IC50": "< 1"}, {"smiles": "CNC/C=C/C(=O)N1CC[C@@H](n2nc(-c3ccc(C(=O)Nc4cc(C)ccn4)cc3)c3c(N)ncnc32)C1", "IC50": "100 to 1000"}, {"smiles": "CN(C)C/C=C/C(=O)N1CC[C@@H](n2nc(-c3ccc(C(=O)Nc4ccccn4)cc3)c3c(N)ncnc32)C1", "IC50": "100 to 1000"}, {"smiles": "CN(C)C/C=C/C(=O)N1CC[C@@H](n2nc(-c3ccc(C(=O)Nc4cc(C(F)(F)F)ccn4)cc3)c3c(N)ncnc32)C1", "IC50": "100 to 1000"}, {"smiles": "Nc1ncnc2c1c(-c1ccc(C(=O)Nc3cc(C(F)(F)F)ccn3)cc1)nn2[C@@H]1CCN(C(=O)/C=C/CNC2CC2)C1", "IC50": "1 to 100"}, {"smiles": "CN(C)C/C=C/C(=O)N1CC[C@@H](n2nc(-c3ccc(C(=O)Nc4cc(C#N)ccn4)cc3)c3c(N)ncnc32)C1", "IC50": "100 to 1000"}, {"smiles": "CN(C/C=C/C(=O)N1CC[C@@H](n2nc(-c3ccc(C(=O)Nc4ncc(C(F)(F)F)s4)cc3)c3c(N)ncnc32)C1)C1CC1", "IC50": "100 to 1000"}, {"smiles": "Cc1ccnc(NC(=O)c2ccc(-c3nn([C@H]4CC[C@H](NC(=O)/C=C/CN(C)C)CC4)c4ncnc(N)c34)cc2)c1", "IC50": "100 to 1000"}, {"smiles": "CN(C/C=C/C(=O)N1CC[C@@H](n2nc(-c3ccc(C(=O)Nc4ccccn4)cc3)c3c(N)ncnc32)C1)C1CC1", "IC50": "100 to 1000"}, {"smiles": "CNC/C=C/C(=O)N1CC[C@@H](n2nc(-c3ccc(C(=O)Nc4cc(C(F)(F)F)ccn4)cc3)c3c(N)ncnc32)C1", "IC50": "1 to 100"}, {"smiles": "CC(C)c1cnc(NC(=O)c2ccc(-c3nn([C@@H]4CCN(C(=O)/C=C/CN(C)C5CC5)C4)c4ncnc(N)c34)cc2)s1", "IC50": "100 to 1000"}, {"smiles": "CN(C/C=C/C(=O)N[C@H]1CC[C@H](n2nc(-c3ccc(C(=O)Nc4cc(C(F)(F)F)ccn4)cc3)c3c(N)ncnc32)CC1)C1CC1", "IC50": "100 to 1000"}, {"smiles": "CC(C)c1ccnc(NC(=O)c2ccc(-c3nn([C@@H]4CCN(C(=O)/C=C/CN(C)C)C4)c4ncnc(N)c34)cc2)c1", "IC50": "100 to 1000"}, {"smiles": "CCCc1cnc(NC(=O)c2ccc(-c3nn([C@@H]4CCN(C(=O)/C=C/CN(C)C5CC5)C4)c4ncnc(N)c34)cc2)s1", "IC50": "100 to 1000"}, {"smiles": "CCCc1ccnc(NC(=O)c2ccc(-c3nn([C@@H]4CCN(C(=O)/C=C/CN(C)C5CC5)C4)c4ncnc(N)c34)cc2)c1", "IC50": "100 to 1000"}, {"smiles": "CN(C/C=C/C(=O)N1CC[C@@H](n2nc(-c3ccc(C(=O)Nc4ncco4)cc3)c3c(N)ncnc32)C1)C1CC1", "IC50": "> 10"}, {"smiles": "CN(C/C=C/C(=O)N1CC[C@@H](n2nc(-c3ccc(C(=O)Nc4cc(C(F)(F)F)ccn4)cc3)c3c(N)ncnc32)C1)C1CC1", "IC50": "100 to 1000"}, {"smiles": "Cc1ccnc(NC(=O)c2ccc(-c3nn([C@H]4CC[C@H](NC(=O)/C=C/CN(C)C5CC5)CC4)c4ncnc(N)c34)cc2)c1", "IC50": "100 to 1000"}, {"smiles": "CCc1cnc(NC(=O)c2ccc(-c3nn([C@@H]4CCN(C(=O)/C=C/CN(C)C5CC5)C4)c4ncnc(N)c34)cc2)s1", "IC50": "100 to 1000"}, {"smiles": "CN(C/C=C/C(=O)N1CC[C@@H](n2nc(-c3ccc(C(=O)Nc4ncc(C#N)s4)cc3)c3c(N)ncnc32)C1)C1CC1", "IC50": "1 to 100"}, {"smiles": "CC#CC(=O)N[C@H]1CC[C@H](n2nc(-c3ccc(C(=O)Nc4cc(C(F)(F)F)ccn4)cc3)c3c(N)ncnc32)CC1", "IC50": "100 to 1000"}, {"smiles": "Cc1ccnc(NC(=O)c2ccc(-c3nn([C@@H]4CCN(C(=O)/C=C/CNC5CC5)C4)c4ncnc(N)c34)cc2)c1", "IC50": "100 to 1000"}]}]}
